This note sets out measurements from ChEMBL document CHEMBL1799993, “Design driven HtL: The discovery and synthesis of new high efficacy β₂-agonists” (Bioorg Med Chem Lett, 2011).

Experiment [1] deals with Beta-2 adrenergic receptor (Homo sapiens, UniProt P07550). In words: Agonist activity at human adrenergic beta2 receptor expressed in H292 cells assessed as intracellular cAMP accumulation after 1 hr. The class given is functional, cell-based.
Experiment [2] has as its system Cavia porcellus. In words: Bronchodilatory activity against histamine-induced bronchoconstriction in guinea pig at ED80 intratracheally administered 2 hrs before challenge measured up to 12 hrs. The class given is functional. The conditions noted are these: inhaled or nasal.
In experiment [3] the test system is Cavia porcellus. In words: Bronchodilatory activity against histamine-induced bronchoconstriction in guinea pig at ED80 intratracheally administered 2 hrs before challenge measured up to 2 hrs. The class given is functional, organism-based.
The species entered for experiment [4] is Cavia porcellus. In words: Bronchodilatory activity against histamine-induced bronchospasm in guinea pig. The class given is functional, organism-based.
Experiment [5] relates to Cavia porcellus. In words: Bronchodilatory activity against histamine-induced bronchoconstriction in guinea pig at ED80 intratracheally administered 2 hrs before challenge measured after 2 hrs. The class given is functional, organism-based.

Active and inactive are the calls of the source. The calls are words filed in the database; no cut-off is given here.

Chain of Beta-2 adrenergic receptor (P07550 whole entry): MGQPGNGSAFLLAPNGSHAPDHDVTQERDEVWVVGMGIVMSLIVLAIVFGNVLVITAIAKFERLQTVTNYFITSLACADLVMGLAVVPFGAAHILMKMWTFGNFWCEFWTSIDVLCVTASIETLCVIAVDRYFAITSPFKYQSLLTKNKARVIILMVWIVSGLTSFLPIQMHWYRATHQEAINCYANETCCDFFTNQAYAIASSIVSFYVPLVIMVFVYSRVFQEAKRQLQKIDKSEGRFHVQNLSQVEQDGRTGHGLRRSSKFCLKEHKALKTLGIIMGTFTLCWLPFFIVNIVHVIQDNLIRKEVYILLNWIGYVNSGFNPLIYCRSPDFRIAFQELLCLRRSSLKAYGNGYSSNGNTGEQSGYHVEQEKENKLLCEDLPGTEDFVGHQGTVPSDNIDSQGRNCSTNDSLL

What is called EC50 is the concentration that produces a half-maximal response. As for `CCCCN(CCNC[C@H](O)c1ccc(O)c2[nH]c(=O)sc12)C(=O)CCOCCc1ccccc1`, the EC50 in experiment [1] was 0.794 nM. Still for that read-out and setting: in the case of `CCCN(CCNCCc1ccc(O)c2[nH]c(=O)sc12)C(=O)CCOCCc1ccccc1` it was 7.94 nM.

For `CN(CCNCCc1ccc(O)c2[nH]c(=O)sc12)C(=O)CCOCCc1ccccc1`, the EC50 in experiment [1] is 0.501 nM. Same read-out and setting: in the case of `CCCCN(CCN(C)CCc1ccc(O)c2[nH]c(=O)sc12)C(=O)CCOCCc1ccccc1` it was 126 nM; in that of `CC(C)(CNCCc1ccc(O)c2[nH]c(=O)sc12)NC(=O)CCOCCc1ccccc1`, 7.94 nM; in that of `COc1ccc(CCNCCN(C)C(=O)CCOCCc2ccccc2)c2sc(=O)[nH]c12`, more than 1000 nM. For the compound `COc1ccc(CC(C)NCC(O)c2ccc(O)c(NC=O)c2)cc1` (configuration not stated) [FORMOTEROL], the ED80 in the experiment on Cavia porcellus [2] was found to be 1.4 µg/kg. In the case of `CCN(CCNCCc1ccc(O)c2[nH]c(=O)sc12)C(=O)CCOCCc1ccccc1`, in experiment [1], the EC50 was 1 nM. Take `OCc1cc(C(O)CNCCCCCCOCCCCc2ccccc2)ccc1O` (configuration not stated) [SALMETEROL]: in the experiment with Cavia porcellus [2], the ED80 was 0.7 µg/kg. Turning to `CN(CCc1ccc(O)c2[nH]c(=O)sc12)CCN(C)C(=O)CCOCCc1ccccc1`, in experiment [1], the EC50 was more than 1000 nM. In the case of `CCCCN(CCNCCc1ccc(O)c2[nH]c(=O)sc12)C(=O)CCOCCc1ccccc1`, the result in the experiment on Cavia porcellus [3] was Active. The ED80 in the experiment with Cavia porcellus [2] turned out to be 2.6 µg/kg. The Activity result in the experiment listed under Cavia porcellus [4] was “Dose-dependent effect”. The result with Cavia porcellus [5] was inactive. In addition, in experiment [1], the EC50 is 1.58 nM. In the case of `O=C(CCOCCc1ccccc1)NCCNCCc1ccc(O)c2nc(O)sc12`, the EC50 in experiment [1] is 1.58 nM. Still for that read-out and setting: in the case of `CC(C)N(CCNCCc1ccc(O)c2[nH]c(=O)sc12)C(=O)CCOCCc1ccccc1` it was 7.94 nM.
